Measurements from patent publication US6562854B2, “Compositions comprising a substituted benzimidazole useful for treating immunomediated inflammatory disorders” (Axys Pharmaceuticals, Inc., priority 1994, dated 2003).
pKi: −log10 of the molar value. Structures can show the parent of a compound that is named as a salt.

Test system: tryptase purified from human lung or skin tissue preparations or human mast cell line (HMC-1)
Assay: In vitro Tryptase Inhibition Assay
Type: biochemical
Conditions: substrate tosyl-Gly-Pro-Lys-p-nitroanilide; Tris-HCl pH 8.2; zinc chloride 150 μM; 1 hour preincubation at room temperature; read-out: Ki (apparent inhibition constant, tryptase inhibitory activity)
Experimental: Tryptase solution ([…]) was prepared by dissolving tryptase purified from human lung or skin tissue preparations or human mast cell line (HMC-1) or obtained from commercial sources, e.g., ICN Biomeidals, Irvine, Calif., Athens Research & Technology, Athens, Ga., etc., in a solvent mixture comprising: 10 mM 2-N-morpholinoethane sulfonic acid, 2 mM CaCl2, 20% glycerol and 50 µg/mL heparin. Substrate solution containing 2 mM synthetic tripeptide (tosyl-Gly-Pro-Lys-p-nitroanilide) was obtained from Sigma. Test Compound solutions were prepared by diluting a stock solution (1 mg of test Compound in 200 μL of dimethylsulfoxide (DMSO)) by ten-fold into assay buffer (comprising: Tris-HCl (pH 8.2), 50 mM; NaCl, 100 MM; 0.05% polyoxyethylenesorbitan monolaurate (Tween-20®); and zinc chloride, 150 μM) and then making seven additional three-fold dilutions into 10% DMSO in assay buffer.
Aliquots (50 μL) from each of the eight dilutions of test compound solution were added to separate wells in a 96-well U-bottom microtiter plate. Typtase solution (25 μL) was added to each well and the solutions were mixed 1 hour at room temperature. Substrate solution (25 μL) was added to initiate the enzymatic reaction and the microtiter plates were immediately transferred to a UVIMAX Kinetic Microplate Reader (Molecular Devices). The hydrolysis of the chromogenic substrate was followed spectrophotometrically at 405 nanometers for five minutes. Initial velocity measurements were calculated from the progress curves by kinetic analysis program (BatchKi; Petr Kuzmic, University of Wisconsin, Madison, Wis.). Apparent inhibition constants (K) were calculated from the enzyme progress curves using standard mathematical models.

Row | SMILES | pKi
1 | Cn1c(Cc2nc3cc(CN)ccc3[nH]2)nc2cc(C(=O)NCCCN)ccc21 [Compound 12, 2-(5-Aminomethyl-1H-benzoimidazol-2-ylmethyl)-N-(3-aminopropyl)-1-methyl-1H-benzoimidazole-5-carboxamide] | 4.54
2 | CC(=N)N1CCc2[nH]c(C(C)c3nc4ccc(C(=O)NCCOc5ccccc5-c5nnn[nH]5)cc4n3C)nc2C1 (stereo not drawn) [Compound 225, 2-{1-[5-(1-iminoethyl)-4,5,6,7-tetrahydro-1H-imidazo[4,5-c]pyridin-2-yl]ethyl}-3-methyl-N-[2-(2-tetrazolylphenoxy)ethyl]-3H-benzoimidazole-5-carboxamide] | 8.10
3 | CC(=N)N1CCc2[nH]c(Cc3nc4ccc(C(=O)NCCc5ccc(O)c6ccccc56)cc4n3C)nc2C1 [Compound 128, 2-[5-(1-iminoethyl)-4,5,6,7-tetrahydro-1H-imidazo[4,5-c]pyridin-2-ylmethyl]-3-methyl-N-[2-(4-hydroxynaphthal-1-yl)ethyl]-3H-benzoimidazole-5-carboxamide] | 8.70
4 | CC(=N)N1CCc2[nH]c(C(=O)c3nc4ccc(C(=O)NCCc5cccc6ccccc56)cc4n3C)nc2C1 [Compound 116, 2-[5-(1-iminoethyl)-4,5,6,7-tetrahydro-1H-imidazo[4,5-c]pyridin-2-ylcarbonyl]-3-methyl-N-(2-naphth-1-ylethyl)-3H-benzoimidazole-5-carboxamide] | 8.22
5 | CCCOC(=O)c1ccccc1OCCNC(=O)c1ccc2nc(C(C)c3nc4cc(O)ccc4[nH]3)n(C)c2c1 (stereo not drawn) [Compound 42, propyl 2-(2-{2-[1-(5-hydroxy-1H-benzoimidazol-2-yl)ethyl]-3-methyl-3H-benzoimidazol-5-ylcarbonylamino}ethoxy)benzoate] | 8.10
6 | NCc1ccc2[nH]c(Cc3nc4cc(C(=O)NCCCCc5ccccc5)ccc4[nH]3)nc2c1 [Compound 1, 2-(5-Aminomethyl-1H-benzoimidazol-2-ylmethyl)-N-(4-phenylbutyl)-1H-benzoimidazole-5-carboxamide trifluoroacetate] | 7.05
7 | N=C(N)Nc1ccc2[nH]c(C(=O)c3nc4ccc(C(=O)NCCc5cccc6ccccc56)cc4n3CC(O)CO)nc2c1 (stereo not drawn) [Compound 134, 2-(5-guanidino-1H-benzoimidazol-2-ylcarbonyl)-3-(2,3-dihydroxy)propyl-N-(2-naphth-1-ylethyl)-3H-benzoimidazole-5-carboxamide] | 10.70
8 | CC(c1nc2cc(NC(=N)N)ccc2[nH]1)c1nc2ccc(C(=O)NCCOc3ccc(Cl)cc3C(N)=O)cc2n1C (stereo not drawn) [Compound 250, 2-[1-(5-guanidino-1H-benzoimidazol-2-yl)ethyl]-N-[2-(2-carbamoyl-4-chlorophenoxy)ethyl]-3-methyl-3H-benzoimidazole-5-carboxamide] | 9.40
9 | CC(c1nc2cc(NC(=N)N)ccc2[nH]1)c1nc2ccc(C(=O)NCCOc3ccccc3C(N)=O)cc2n1C (stereo not drawn) [Compound 249, 2-[1-(5-guanidino-1H-benzoimidazol-2-yl)ethyl]-N-[2-(2-carbamoylphenoxy)ethyl]-3-methyl-3H-benzoimidazole-5-carboxamide] | 9.15
10 | CCOC(=O)c1ccccc1CCCC(=O)N1CCc2[nH]c(C(C)c3nc4cc(NC(=N)N)ccc4[nH]3)nc2C1 (stereo not drawn) [Compound 29, Ethyl 2-(4-{2-[1-(5-guanidino-1H-benzoimidazol-2-yl)ethyl]-1,4,6,7-tetrahydroimidazo[4,5-c]pyridin-5-yl}-4-oxobutyl)benzoate] | 9.10
11 | NCc1ccc2[nH]c(Cc3nc4cc(NC(=O)OCCc5ccccc5)ccc4[nH]3)nc2c1 [Compound 27, 2-Phenylethyl 2-(5-aminomethyl-1H-benzoimidazol-2-ylmethyl)-1H-benzoimidazole-5-carbamate trifluoroacetate] | 6.22
12 | CC(=N)N1CCc2[nH]c(Cc3nc4ccc(C(=O)NCC(O)c5cccc6ccccc56)cc4n3C)nc2C1 (stereo not drawn) [Compound 126, 2-[5-(1-iminoethyl)-4,5,6,7-tetrahydro-1H-imidazo[4,5-c]pyridin-2-ylmethyl]-3-methyl-N-(2-hydroxy-2-naphth-1-ylethyl)-3H-benzoimidazole-5-carboxamide] | 8.10
13 | CC(=N)N1CCc2[nH]c(C(C)c3nc4ccc(C(=O)NCCc5cccc6ccccc56)cc4n3C)nc2C1 (stereo not drawn) [Compound 169, 2-{1-[5-(1-iminoethyl)-4,5,6,7-tetrahydro-1H-imidazo[4,5-c]pyridin-2-yl]ethyl}-3-methyl-N-(2-naphth-1-ylethyl)-3H-benzoimidazole-5-carboxamide] | 9.00
14 | CCOC(=O)c1ccccc1OCCNC(=O)c1ccc2nc(C(C)c3nc4c([nH]3)CCN(C(C)=N)C4)n(C)c2c1 (stereo not drawn) [Compound 182, ethyl 2-[2-(2-{1-[5-(1-iminoethyl)-4,5,6,7-tetrahydro-1H-imidazo[4,5-c]pyridin-2-yl]ethyl}-3-methyl-3H-benzoimidazol-5-ylcarbonylamino)ethoxy]benzoate] | 8.40
15 | CC(=N)N1CCc2[nH]c(Cc3nc4ccc(C(=O)NCCc5c(O)ccc6ccccc56)cc4n3C)nc2C1 [Compound 127, 2-[5-(1-iminoethyl)-4,5,6,7-tetrahydro-1H-imidazo[4,5-c]pyridin-2-ylmethyl]-3-methyl-N-[2-(2-hydroxynaphth-1-yl)ethyl]-3H-benzoimidazole-5-carboxamide] | 8.22
16 | N=C(N)Nc1ccc2[nH]c(Cc3nc4ccc(C(=O)NCCc5cccc6ccccc56)cc4n3CC(O)CO)nc2c1 (stereo not drawn) [Compound 132, 2-(5-guanidino-1H-benzoimidazol-2-ylmethyl)-3-(2,3-dihydroxy)propyl-N-(2-naphth-1-ylethyl)-3H-benzoimidazole-5-carboxamide] | 10.70
17 | CCOC(=O)c1ccccc1OCCNC(=O)N1CCc2[nH]c(C(C)c3nc4c([nH]3)CCN(C(C)=N)C4)nc2C1 (stereo not drawn) [Compound 203, ethyl 2-[2-(2-{1-[5-(1-iminoethyl)-4,5,6,7-tetrahydro-1H-imidazo[4,5-c]pyridin-2-yl]ethyl}-1,4,6,7-tetrahydroimidazo[4,5-c]pyridin-5-ylcarbonylamino)ethoxy]benzoate] | 8.10
18 | CC(c1nc2cc(F)c(F)cc2[nH]1)c1nc2ccc(C(=O)NCCOc3ccccc3C(=O)O)cc2n1C (stereo not drawn) [Compound 81, 2-(2-{2-[1-(5,6-difluoro-1H-benzoimidazol-2-yl)ethyl]-3-methyl-3H-benzoimidazol-5-ylcarbonylamino}ethoxy)benzoic acid] | 8.00
19 | CC(C)COC(=O)c1ccccc1OCCNC(=O)c1ccc2nc(C(C)c3nc4cc(O)ccc4[nH]3)n(C)c2c1 (stereo not drawn) [Compound 43, isobutyl 2-(2-{2-[1-(5-hydroxy-1H-benzoimidazol-2-yl)ethyl]-3-methyl-3H-benzoimidazol-5-ylcarbonylamino}ethoxy)benzoate] | 8.70
20 | Cn1c(Cc2nc3c([nH]2)CCC(CN)C3)nc2ccc(C(=O)NCCc3cccc4ccccc34)cc21 (stereo not drawn) [Compound 112, 2-(5-aminomethyl-4,5,6,7-tetrahydro-1H-benzoimidazol-2-ylmethyl)-3-methyl-N-(2-naphth-1-ylethyl)-3H-benzoimidazole-5-carboxamide] | 10.30
21 | NCc1ccc2[nH]c(Cc3nc4cc(OCCCCc5ccccc5)ccc4[nH]3)nc2c1 [Compound 26, C-{2-[5-(4-phenylbutoxy)-1H-benzoimidazol-2-ylmethyl]-1H-benzoimidazol-5-yl}methylamine] | 4.48
